Data on 5 molecules can be found in patent US10376456B2, “Concentrated and self-preserving compositions of mild surfactants for transparent and skin-pH personal care formulations” (GALAXY SURFACTANTS LTD., priority 2015, dated 2019).

Data set [1] can be described thus: Critical micelle concentration (CMC). It is filed as physicochemical. From the text:
It is well established that in case of surfactants, lower the CMC value, milder the surfactants. Ionic surfactant molecules interact with proteins through charge-charge interaction since the charge density on the head group is high. Whenever aggregates are formed the charge density of micelle is much lesser as the charge gets spread over the large micelle. […] It can be seen from Table 2 that CMC of anionic sodium lauryl sulphate (SLS) is the highest and zwitterionic (electrically neutral) cocoamidopropyl (CAPB) is the lowest.

In another data set the test system is subject's volar arm. Briefly: Corneometry analysis of skin hydration after repeated application of body-wash. It is filed as in vivo. The settings on record: body-wash 12% active matter, 2% PEG-150 distearate, twice a day for fifteen days, 50% RH, 20° C. The text has this:
Removal of Natural Moisturizing Factor (NMF) from stratum corneum during cleansing leads to a lower capacitance reading since there is less secondary bound water in the skin's corneocytes. […] The corneometer findings are consistent with the TEWL findings.

Turning to Cocoamidopropyl betaine [CAPB], in data set [1], the CMC is reported as 0.06 mM/liter. The same measure, in the same setting: the value for `CCCCCCCCCCCCOS(=O)(=O)[O-].[Na+]` [SLS, sodium lauryl sulfate] was 5.90 mM/liter; that for sodium cocoyl glycinate was 1.01 mM/liter.

For the molecule “Sodium lauryl ether sulfate [sodium lauryl ether sulphate (2 EO)]”, in the data set on subject's volar arm, the “Skin moisture level (corneometry)” value is on record as “dry the stratum corneum”. Sodium cocoyl isethionate: the CMC in data set [1] amounted to 0.14 mM/liter.
